Reference: patent US20250186627A1, “RADIOLABELED COMPOUNDS TARGETING THE PROSTATE-SPECIFIC MEMBRANE ANTIGEN” (PROVINCIAL HEALTH SERVICES AUTHORITY, priority 2022, published 2025)
*1 amine or outer side, *2 acyl side, *3 side chain or, on linkers, in order; H or OH if unused. Where a SMILES comes first, the peptide text is derived from it. [ ]: non-standard residue; d: D form. The star is where a group is joined. ξ: configuration not given here. DOTA = O=C(O)CN1CCN(CC(=O)O)CCN(CC(=O)*)CCN(CC(=O)O)CC1; Butanoyl(4-(4-MeO-phenyl)) = COc1ccc(CCCC(=O)*)cc1; ξAla(9-anthryl) = NC(Cc1c2ccccc2cc2ccccc12)C(=O)O; X2 = O=C(NC(CCCCN*)C(=O)O)NC(CC(F)C(=O)O)C(=O)O; X1 = O=C(C1CCC(CN[*:1])CC1)[*:2]; ξK = NCCCCC(N)C(=O)O

Tested on: NRG-mice bearing LNCaP tumors
Assay: Biodistribution (and PET/SPECT imaging) in NRG-mice bearing LNCaP tumors
Type: in vivo
Conditions: Avg
Procedure: LNCaP cell line was obtained from ATCC (LNCaP clone FGC, CRL-1740). It was established from a metastatic site of left supraclavicular lymph node of human prostatic adenocarcinoma. Cells were cultured in PRMI 1640 medium supplemented with 10% FBS, penicillin (100 U/mL) and streptomycin (100 μg/mL) at 37° C. in a humidified incubator containing 5% CO2. Cells grown to 80-90% confluence were then washed with sterile phosphate-buffered saline (1×PBS pH 7.4) and trypsinization. The collected cells number was counted with a Hausser Scientific (Horsham, PA) Hemacytometer. Approximately 10 million LNCaP cells were inoculated into the left dorsal flank of immunocomprised NRG mice. The tumours were allowed to grow for 4-6 weeks and used for imaging and biodistribution studies when a volume of 200-600 mm^3 was reached.
PET imaging experiments were conducted using Siemens Inveon micro PET/CT scanner. SPECT imaging experiments were conducted using an MILabs micro SPECT/CT scanner. Each tumor bearing mouse was injected 4-6 MBq of ^68Ga or 18.5 MBq of ^177Lu labeled tracer through the tail vein under anesthesia (2% isoflurane in oxygen). The mice were allowed to recover and roam freely in their cage. At pre-defined time point, the mice were sedated again with 2% isoflurane in oxygen inhalation and positioned in the scanner. A 10-min CT scan was conducted first for localization and attenuation correction after segmentation for reconstructing the PET or SPECT images. Then, a 10-min static PET imaging or a one hour (30 min×2 frames) of static SPECT scan was performed to determined uptake in tumor and other organs. The mice were kept warm by a heating pad during acquisition.
For biodistribution studies, the mice were injected with the radiotracer as described above. The mice were anesthetized with 2% isoflurane inhalation, and euthanized by CO2 inhalation. Blood was withdrawn immediately from the heart, and the organs/tissues of interest were collected. The collected organs/tissues were weighed and counted using a Perkin Elmer (Waltham, MA) Wizard2 2480 gamma counter. The uptake in each organ/tissue was normalized to the injected dose (radioactivity) using a standard curve, and expressed as the percentage of the injected dose per gram of tissue (% ID/g).

Q: How did the “Biodistribution: Adrenal gland” value (4 h p.i.) turn out when `COc1ccc(CCCC(=O)NCC(=O)NC(CCCCNC(=O)CN2CCN(CC(=O)[O-])CCN(CC(=O)[O-])CCN(CC(=O)[O-])CC2)C(=O)NCC(=O)NCC2CCC(C(=O)NC(Cc3c4ccccc4cc4ccccc34)C(=O)NCCCCC(NC(=O)NC(CC(F)C(=O)O)C(=O)O)C(=O)O)CC2)cc1.[177Lu+3]` (stereo not drawn) [^177Lu-CCZ02008] ({Butanoyl(4-(4-MeO-phenyl))}-G[ξK](DOTA)G[X1][ξAla(9-anthryl)]-X2) was run?
A: The value was 5.91 % ID/g.

Q: What about the “Biodistribution: Blood” value (4 h p.i.) of the same compound?
A: Its value is 24.97 % ID/g.

Q: And the “Biodistribution: Bone” value (4 h p.i.)?
A: Its value is 1.49 % ID/g.

Q: And the “Biodistribution: Brain” value (4 h p.i.)?
A: The value was 0.47 % ID/g.

Q: What about the “Biodistribution: Fat” value (4 h p.i.) of the same compound?
A: The value was 2.63 % ID/g.

Q: What about the “Biodistribution: Heart” value (4 h p.i.) of the same compound?
A: The value was 5.42 % ID/g.

Q: What about the “Biodistribution: Intestine” value (4 h p.i.) of the same compound?
A: The value was 1.87 % ID/g.

Q: What about the “Biodistribution: LNCaP tumor” value (4 h p.i.) of the same compound?
A: The value was 21.30 % ID/g.

Q: What about the “Biodistribution: Lacrimal gland” value (4 h p.i.) of the same compound?
A: Its value is 1.44 % ID/g.

Q: And the “Biodistribution: Liver” value (4 h p.i.)?
A: Its value is 4.26 % ID/g.

Q: And the “Biodistribution: Lungs” value (4 h p.i.)?
A: Its value is 10.19 % ID/g.

Q: What about the “Biodistribution: Muscle” value (4 h p.i.) of the same compound?
A: The value was 1.75 % ID/g.

Q: And the “Biodistribution: Pancreas” value (4 h p.i.)?
A: The value was 2.20 % ID/g.

Q: What about the “Biodistribution: Salivary gland” value (4 h p.i.) of the same compound?
A: The value was 4.23 % ID/g.

Q: What about the “Biodistribution: Seminal gland” value (4 h p.i.) of the same compound?
A: Its value is 1.53 % ID/g.

Q: What about the “Biodistribution: Spleen” value (4 h p.i.) of the same compound?
A: The value was 2.15 % ID/g.

Q: And the “Biodistribution: Stomach” value (4 h p.i.)?
A: Its value is 1.11 % ID/g.

Q: And the “Biodistribution: Testes” value (4 h p.i.)?
A: Its value is 3.83 % ID/g.

Q: And the “Biodistribution: Thyroid” value (4 h p.i.)?
A: Its value is 4.29 % ID/g.

Q: And the “Biodistribution: Urine” value (4 h p.i.)?
A: Its value is 76.61 % ID/g.

Q: What about the “Biodistribution: kidney” value (4 h p.i.) of the same compound?
A: Its value is 10.56 % ID/g.

Q: What about the “Biodistribution: Adrenal gland” value (24 h p.i.) of the same compound?
A: The value was 2.39 % ID/g.

Q: What about the “Biodistribution: Blood” value (24 h p.i.) of the same compound?
A: The value was 4.37 % ID/g.

Q: And the “Biodistribution: Bone” value (24 h p.i.)?
A: Its value is 0.36 % ID/g.

Q: And the “Biodistribution: Brain” value (24 h p.i.)?
A: Its value is 0.09 % ID/g.

Q: What about the “Biodistribution: Fat” value (24 h p.i.) of the same compound?
A: Its value is 0.71 % ID/g.

Q: What about the “Biodistribution: Heart” value (24 h p.i.) of the same compound?
A: The value was 1.27 % ID/g.

Q: And the “Biodistribution: Intestine” value (24 h p.i.)?
A: Its value is 0.59 % ID/g.

Q: What about the “Biodistribution: LNCaP tumor” value (24 h p.i.) of the same compound?
A: Its value is 38.57 % ID/g.

Q: And the “Biodistribution: Lacrimal gland” value (24 h p.i.)?
A: Its value is 0.12 % ID/g.

Q: What about the “Biodistribution: Liver” value (24 h p.i.) of the same compound?
A: The value was 1.16 % ID/g.

Q: And the “Biodistribution: Lungs” value (24 h p.i.)?
A: Its value is 2.49 % ID/g.

Q: And the “Biodistribution: Muscle” value (24 h p.i.)?
A: The value was 0.40 % ID/g.

Q: And the “Biodistribution: Pancreas” value (24 h p.i.)?
A: Its value is 0.62 % ID/g.

Q: And the “Biodistribution: Salivary gland” value (24 h p.i.)?
A: The value was 1.38 % ID/g.

Q: And the “Biodistribution: Seminal gland” value (24 h p.i.)?
A: The value was 0.38 % ID/g.

Q: And the “Biodistribution: Spleen” value (24 h p.i.)?
A: The value was 0.86 % ID/g.

Q: And the “Biodistribution: Stomach” value (24 h p.i.)?
A: Its value is 0.48 % ID/g.

Q: And the “Biodistribution: Testes” value (24 h p.i.)?
A: Its value is 1.86 % ID/g.

Q: What about the “Biodistribution: Thyroid” value (24 h p.i.) of the same compound?
A: Its value is 1.54 % ID/g.

Q: And the “Biodistribution: Urine” value (24 h p.i.)?
A: Its value is 28.57 % ID/g.

Q: And the “Biodistribution: kidney” value (24 h p.i.)?
A: The value was 7.55 % ID/g.

Q: And the “Biodistribution: Adrenal gland” value (72 h p.i.)?
A: Its value is 2.59 % ID/g.

Q: What about the “Biodistribution: Blood” value (72 h p.i.) of the same compound?
A: The value was 0.42 % ID/g.

Q: What about the “Biodistribution: Bone” value (72 h p.i.) of the same compound?
A: The value was 0.26 % ID/g.

Q: What about the “Biodistribution: Brain” value (72 h p.i.) of the same compound?
A: The value was 0.03 % ID/g.

Q: And the “Biodistribution: Fat” value (72 h p.i.)?
A: Its value is 0.39 % ID/g.

Q: And the “Biodistribution: Heart” value (72 h p.i.)?
A: Its value is 0.37 % ID/g.

Q: And the “Biodistribution: Intestine” value (72 h p.i.)?
A: Its value is 0.15 % ID/g.

Q: And the “Biodistribution: LNCaP tumor” value (72 h p.i.)?
A: Its value is 38.46 % ID/g.

Q: And the “Biodistribution: Lacrimal gland” value (72 h p.i.)?
A: Its value is 0.07 % ID/g.

Q: And the “Biodistribution: Liver” value (72 h p.i.)?
A: The value was 0.47 % ID/g.

Q: And the “Biodistribution: Lungs” value (72 h p.i.)?
A: The value was 0.69 % ID/g.

Q: What about the “Biodistribution: Muscle” value (72 h p.i.) of the same compound?
A: Its value is 0.11 % ID/g.

Q: And the “Biodistribution: Pancreas” value (72 h p.i.)?
A: The value was 0.17 % ID/g.

Q: What about the “Biodistribution: Salivary gland” value (72 h p.i.) of the same compound?
A: Its value is 0.55 % ID/g.

Q: What about the “Biodistribution: Seminal gland” value (72 h p.i.) of the same compound?
A: Its value is 0.15 % ID/g.

Q: What about the “Biodistribution: Spleen” value (72 h p.i.) of the same compound?
A: The value was 0.83 % ID/g.

Q: What about the “Biodistribution: Stomach” value (72 h p.i.) of the same compound?
A: The value was 0.18 % ID/g.

Q: What about the “Biodistribution: Testes” value (72 h p.i.) of the same compound?
A: The value was 0.92 % ID/g.

Q: And the “Biodistribution: Thyroid” value (72 h p.i.)?
A: The value was 0.65 % ID/g.

Q: What about the “Biodistribution: Urine” value (72 h p.i.) of the same compound?
A: The value was 4.51 % ID/g.

Q: What about the “Biodistribution: kidney” value (72 h p.i.) of the same compound?
A: The value was 3.53 % ID/g.

Q: And the “Biodistribution: Adrenal gland” value (120 h p.i.)?
A: The value was 1.39 % ID/g.

Q: What about the “Biodistribution: Blood” value (120 h p.i.) of the same compound?
A: The value was 0.14 % ID/g.

Q: What about the “Biodistribution: Bone” value (120 h p.i.) of the same compound?
A: The value was 0.14 % ID/g.

Q: And the “Biodistribution: Brain” value (120 h p.i.)?
A: The value was 0.02 % ID/g.

Q: And the “Biodistribution: Fat” value (120 h p.i.)?
A: The value was 0.22 % ID/g.

Q: What about the “Biodistribution: Heart” value (120 h p.i.) of the same compound?
A: The value was 0.22 % ID/g.

Q: And the “Biodistribution: Intestine” value (120 h p.i.)?
A: Its value is 0.14 % ID/g.

Q: What about the “Biodistribution: LNCaP tumor” value (120 h p.i.) of the same compound?
A: The value was 45.01 % ID/g.

Q: And the “Biodistribution: Lacrimal gland” value (120 h p.i.)?
A: Its value is 0.12 % ID/g.

Q: What about the “Biodistribution: Liver” value (120 h p.i.) of the same compound?
A: The value was 0.30 % ID/g.

Q: And the “Biodistribution: Lungs” value (120 h p.i.)?
A: Its value is 0.30 % ID/g.

Q: What about the “Biodistribution: Muscle” value (120 h p.i.) of the same compound?
A: The value was 0.09 % ID/g.

Q: What about the “Biodistribution: Pancreas” value (120 h p.i.) of the same compound?
A: Its value is 0.11 % ID/g.

Q: What about the “Biodistribution: Salivary gland” value (120 h p.i.) of the same compound?
A: Its value is 0.34 % ID/g.

Q: What about the “Biodistribution: Seminal gland” value (120 h p.i.) of the same compound?
A: The value was 0.27 % ID/g.

Q: And the “Biodistribution: Spleen” value (120 h p.i.)?
A: The value was 1.45 % ID/g.

Q: What about the “Biodistribution: Stomach” value (120 h p.i.) of the same compound?
A: The value was 0.37 % ID/g.

Q: And the “Biodistribution: Testes” value (120 h p.i.)?
A: The value was 0.67 % ID/g.

Q: What about the “Biodistribution: Thyroid” value (120 h p.i.) of the same compound?
A: Its value is 0.39 % ID/g.

Q: What about the “Biodistribution: Urine” value (120 h p.i.) of the same compound?
A: The value was 3.80 % ID/g.

Q: What about the “Biodistribution: kidney” value (120 h p.i.) of the same compound?
A: Its value is 2.04 % ID/g.
